ChEMBL document CHEMBL6078679, “Structure-Guided Discovery of Subtype Selective SIRT6 Inhibitors with a β-Carboline Skeleton for the Treatment of Breast Cancer” (J Med Chem, 2024)

What was measured:
[1] = biological target: T1, NAD-dependent protein deacetylase sirtuin-7 (Homo sapiens, UniProt Q9NRC8); assay: Inhibition of SIRT7 (unknown origin) deacetylation activity using Boc-Lys(Ac)-AMC as substrate incubated for 2 hrs by BioTek microplate reader analysis
T1 sequence (Q9NRC8 whole entry): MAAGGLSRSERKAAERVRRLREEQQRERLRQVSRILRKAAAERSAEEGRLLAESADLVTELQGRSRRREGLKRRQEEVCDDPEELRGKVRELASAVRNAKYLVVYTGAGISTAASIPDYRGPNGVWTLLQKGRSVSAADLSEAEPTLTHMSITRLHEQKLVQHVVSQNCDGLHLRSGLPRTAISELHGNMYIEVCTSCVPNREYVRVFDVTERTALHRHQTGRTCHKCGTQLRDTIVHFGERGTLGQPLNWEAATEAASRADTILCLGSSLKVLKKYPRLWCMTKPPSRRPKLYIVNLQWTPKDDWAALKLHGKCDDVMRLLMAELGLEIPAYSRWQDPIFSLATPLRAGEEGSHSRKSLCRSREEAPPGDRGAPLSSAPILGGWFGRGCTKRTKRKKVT

[2] = biological target: T2, NAD-dependent protein deacetylase sirtuin-2 (Homo sapiens, UniProt Q8IXJ6); assay: Inhibition of SIRT2 (unknown origin) deacetylation activity using Boc-Lys(Ac)-AMC as substrate incubated for 2 hrs by BioTek microplate reader analysis
T2 sequence (Q8IXJ6 whole entry): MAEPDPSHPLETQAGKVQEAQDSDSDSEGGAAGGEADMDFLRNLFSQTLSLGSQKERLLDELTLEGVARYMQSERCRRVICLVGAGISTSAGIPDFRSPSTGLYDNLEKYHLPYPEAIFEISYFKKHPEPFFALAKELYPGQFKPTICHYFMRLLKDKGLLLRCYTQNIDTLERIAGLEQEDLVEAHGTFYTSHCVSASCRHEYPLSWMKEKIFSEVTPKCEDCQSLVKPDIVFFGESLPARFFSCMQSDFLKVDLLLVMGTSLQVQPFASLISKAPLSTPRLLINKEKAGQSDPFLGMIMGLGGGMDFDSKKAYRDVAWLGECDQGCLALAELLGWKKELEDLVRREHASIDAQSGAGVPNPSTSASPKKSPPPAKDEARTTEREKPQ

[3] = biological target: NAD-dependent protein deacylase sirtuin-5, mitochondrial (Homo sapiens, UniProt Q9NXA8); assay: Inhibition of SIRT5 (unknown origin) deacetylation activity using Boc-Lys(Ac)-AMC as substrate incubated for 2 hrs by BioTek microplate reader analysis
NAD-dependent protein deacylase sirtuin-5, mitochondrial, sequence (Q9NXA8 whole entry): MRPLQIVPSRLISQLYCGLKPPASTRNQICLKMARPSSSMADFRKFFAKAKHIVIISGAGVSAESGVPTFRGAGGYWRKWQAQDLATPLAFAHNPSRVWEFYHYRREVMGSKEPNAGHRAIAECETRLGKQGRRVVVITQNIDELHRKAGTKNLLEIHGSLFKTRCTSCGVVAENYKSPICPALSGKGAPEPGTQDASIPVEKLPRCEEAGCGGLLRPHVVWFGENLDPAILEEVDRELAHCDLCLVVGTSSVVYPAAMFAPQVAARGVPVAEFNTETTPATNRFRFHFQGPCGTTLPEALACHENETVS

[4] = biological target: T3, NAD-dependent protein deacetylase sirtuin-1 (Homo sapiens, UniProt Q96EB6); assay: Inhibition of SIRT1 (unknown origin) deacetylation activity using Boc-Lys(Ac)-AMC as substrate incubated for 2 hrs by BioTek microplate reader analysis
T3 sequence (Q96EB6 whole entry): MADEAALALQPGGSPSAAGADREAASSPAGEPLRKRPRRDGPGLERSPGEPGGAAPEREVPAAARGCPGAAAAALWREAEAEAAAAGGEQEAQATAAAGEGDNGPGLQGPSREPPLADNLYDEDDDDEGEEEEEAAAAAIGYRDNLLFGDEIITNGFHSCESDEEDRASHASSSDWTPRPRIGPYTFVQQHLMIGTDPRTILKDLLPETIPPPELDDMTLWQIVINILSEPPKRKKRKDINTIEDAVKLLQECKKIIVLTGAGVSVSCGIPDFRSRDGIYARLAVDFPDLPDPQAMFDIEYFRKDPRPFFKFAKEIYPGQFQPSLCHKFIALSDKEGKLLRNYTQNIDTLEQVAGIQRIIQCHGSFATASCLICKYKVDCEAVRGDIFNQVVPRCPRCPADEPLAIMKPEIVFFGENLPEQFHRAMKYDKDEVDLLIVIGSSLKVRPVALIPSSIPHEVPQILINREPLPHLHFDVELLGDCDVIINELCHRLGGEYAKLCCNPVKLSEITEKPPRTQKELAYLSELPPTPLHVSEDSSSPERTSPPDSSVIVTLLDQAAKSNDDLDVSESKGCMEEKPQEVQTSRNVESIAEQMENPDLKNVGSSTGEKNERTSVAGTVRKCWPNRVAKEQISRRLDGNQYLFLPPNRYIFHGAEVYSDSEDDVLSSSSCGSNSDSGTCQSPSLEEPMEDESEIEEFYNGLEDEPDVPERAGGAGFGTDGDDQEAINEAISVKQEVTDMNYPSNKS

[5] = biological target: T4, NAD-dependent protein lipoamidase sirtuin-4, mitochondrial (Homo sapiens, UniProt Q9Y6E7); assay: Inhibition of SIRT4 (unknown origin) deacetylation activity using Boc-Lys(Ac)-AMC as substrate incubated for 2 hrs by BioTek microplate reader analysis
T4 sequence (Q9Y6E7 whole entry): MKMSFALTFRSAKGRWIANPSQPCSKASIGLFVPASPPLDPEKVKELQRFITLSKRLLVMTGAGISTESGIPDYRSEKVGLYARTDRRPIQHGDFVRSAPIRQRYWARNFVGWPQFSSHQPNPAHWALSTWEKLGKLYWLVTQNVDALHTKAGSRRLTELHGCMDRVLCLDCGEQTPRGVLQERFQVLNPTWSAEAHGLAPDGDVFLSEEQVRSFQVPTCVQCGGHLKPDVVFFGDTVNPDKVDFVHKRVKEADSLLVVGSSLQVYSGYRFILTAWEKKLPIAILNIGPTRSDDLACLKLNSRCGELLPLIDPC

[6] = biological target: T5, NAD-dependent protein deacetylase sirtuin-3, mitochondrial (Homo sapiens, UniProt Q9NTG7); assay: Inhibition of full length N-terminal his-tagged SIRT3 (unknown origin) deacetylation activity expressed in Escherichia coli BL21 (DE3) using RHKK-Ac-AMC as substrate incubated for 2 hrs by FDL analysis relative to control
T5 sequence (Q9NTG7 whole entry): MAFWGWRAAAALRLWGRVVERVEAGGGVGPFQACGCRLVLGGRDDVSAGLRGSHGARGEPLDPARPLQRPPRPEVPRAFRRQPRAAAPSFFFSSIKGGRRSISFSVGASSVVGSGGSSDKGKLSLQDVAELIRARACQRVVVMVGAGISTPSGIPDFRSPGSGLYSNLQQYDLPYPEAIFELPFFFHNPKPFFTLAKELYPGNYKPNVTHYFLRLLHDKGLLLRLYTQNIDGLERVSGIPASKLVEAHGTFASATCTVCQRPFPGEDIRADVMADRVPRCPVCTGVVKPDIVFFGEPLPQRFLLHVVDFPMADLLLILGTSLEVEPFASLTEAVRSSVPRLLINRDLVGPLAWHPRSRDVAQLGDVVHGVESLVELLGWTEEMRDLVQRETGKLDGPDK

For N#Cc1ccc(Cn2c3ccc(Cl)cc3c3cc(C(=O)NCc4ccccn4)ncc32)cc1, the IC50 [1] was over 500 µM, the IC50 [2] was 157 µM and the IC50 [3] was over 500 µM. For the same compound, the IC50 [4] was 312 µM and the IC50 [5] was 274 µM.
With COC(=O)c1cc2c(cn1)[nH]c1ccccc12 [BETA-CCM] the IC50 [6] was over 100 µM.
Compound CC(/C=C/C(=O)NO)=C\[C@@H](C)C(=O)c1ccc(N(C)C)cc1 [TRICHOSTATIN] has an IC50 [6] of 7.88 µM.
